Results published in article PMC8765437, “GSK3640254 Is a Novel HIV-1 Maturation Inhibitor with an Optimized Virology Profile” (Antimicrobial Agents and Chemotherapy, 2022).

Key:
[1] = in vivo, cited from earlier work
[2] = tested on: NLRepRlucP373S-based viruses; test: microbe, parasite or virus in culture; format: cell-based, HIV-1; details: for EC50 / EC90: 10% FBS + 40% HS + 27 mg/mL of HSA
[3] = Cytotoxicity in MT-2 cells (MTS, 4-day incubation); format: cell-based; details: human, read-out: half-maximal cytotoxic concentration (CC50)
Experimental: The assay was performed in a phenol red-free medium at an initial cell density of 10,000 per well in a 96-well plate format. Cell viability was determined using a redox dye assay [3-(4,5-dimethylthiazol-2-yl)-5-(3-carboxymethoxyphenyl)-2-(4-sulfophenyl)-2H-tetrazolium, inner salt (MTS); Promega, Madison, WI] according to the manufacturer’s protocol. Half-maximal cytotoxic concentration values were calculated by fitting to a 4-parameter logistic formula y = A + {[B − A]/1 + [(C/x)^d]}, where A and B are minimal and maximal percent inhibition, respectively, C is the EC50, d is the Hill slope, and x represents compound concentrations.

[4] = tested on: T1, p25 cleavage in HIV-1 Gag VLPs; test: Gag p25 cleavage assay (delipidated VLPs, HIV-1 protease, LC-MS); format: biochemical; details: A364V VLP; 3 μM compound
T1 construct: made in house
Experimental: (§1) Virus-like particles of 3 genotypes were constructed and tested. In addition to WT VLP, a VLP with V370 deleted (ΔV370; a genotype characteristic of subtype C viruses) and one with the known resistance substitution A364V were analyzed. […] A364V is a substitution adjacent to the p25/p24 cleavage site (L363/A364), and in this assay (Fig. 3C), neither MI inhibited production of p24 in the presence of HIV-1 protease.
(§2) As previously described ([22]), VLPs (∼100 ng) were diluted (1:10) in 10 μL of VLP buffer (50 mM MES [pH 6.0], 100 mM NaCl, 2 mM EDTA, and 2 mM dithiothreitol) supplemented with 0.06% Triton X-100 and incubated at room temperature for 10 to 30 min to remove lipid bilayers. […] Samples (1 μL) were taken at 0-, 0.5-, 2-, and 4-h time points and underwent trypsin digestion. […] Peptide samples were then analyzed by liquid chromatography with mass spectrometry using a nanoAcquity ultraperformance liquid chromatography system (Waters Corporation, Milford, MA) interfaced with an LTQ XL Orbitrap mass spectrometer (Thermo Fisher Scientific, Waltham, MA). […]
(§3) Signals for SP1 peptides were normalized to an internal protease fragment at the C-terminal end of Gag, and data were analyzed using Thermo Xcalibur processing software 3.0.63 and Thermo Xcalibur Quanbrowser software 3.0.63 (Thermo Fisher Scientific) as described previously ([23]).

[5] = tested on: p25 cleavage in HIV-1 Gag VLPs; test: as above; format: biochemical; details: WT and ΔV370 VLPs; 3 μM compound
Experimental: as §1, §2, §3

[6] = Human immunodeficiency virus 1, HS27, V370A
[7] = Human immunodeficiency virus 1, HS27, Wild type
[8] = Human immunodeficiency virus 1, HS27, ΔV370

C=C(C)[C@@H]1CC[C@]2(NCCN3CCS(=O)(=O)CC3)CC[C@]3(C)[C@H](CC[C@@H]4[C@@]5(C)CC=C(C6=CC[C@@](CF)(C(=O)O)CC6)C(C)(C)[C@@H]5CC[C@]43C)[C@@H]12 [GSK’254]
safety and tolerability ([1]; po): acceptable safety and tolerability
gastrointestinal intolerability [1]: only mild gastrointestinal intolerability
EC50 [2, 6]: 9.1 nM
EC90 [2, 6]: 42.2 nM
EC50 [2, 7]: 12.3 nM
EC90 [2, 7]: 26.1 nM
EC50 [2, 8]: 38.2 nM
EC90 [2, 8]: 195 nM
average potency decrease in human serum ([2]; average of WT, V370A and ΔV370 viruses): 7.9 fold
CC50 at 4 days [3]: 13000 ± 6000 nM
inhibition of p25 cleavage [4]: failed to impact cleavage
inhibition of p25 cleavage [5]: significantly better inhibition of p25 cleavage than GSK’795
